{"source": "PubChem BioAssay AID248", "about": "(DTP/NCI, 2004)", "test_system": "L1210 leukemia ip in BDF1 mice, survival T/C", "assay": "NCI In Vivo Anticancer Drug Screen. Data for tumor model L1210 Leukemia (intraperitoneal) in B6D2F1 (BDF1) mice", "details": "endpoint: mean survival time, higher = longer survival", "in_short": "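Antitumor effect is assessed in tumor-bearing animals. Survival in the compound arm is compared with a vehicle-dosed control arm and expressed as their quotient.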", "note": "Several values for one entry are separate records, joined by “and”; a condition that tells them apart may be missing. Equal values may be shown once. Toxic doses and inconclusive results are not listed."}
{"smiles": "O=C1N[C@@H]([C@H]2CC[C@H](Cl)CN2)C(=O)N[C@H]1[C@H]1CC[C@H](Cl)CN1", "values": [{"measurement": "T/C", "setting": "dose: 0.05 mg/kg/injection, schedule: Q01DX009 (ip), vehicle: saline", "value": "98 % of control and 109 % of control"}, {"measurement": "T/C", "setting": "dose: 0.1 mg/kg/injection, schedule: Q01DX009 (ip), vehicle: saline", "value": "104 % of control and 113 % of control"}, {"measurement": "T/C", "setting": "dose: 0.2 mg/kg/injection, schedule: Q01DX009 (ip), vehicle: saline", "value": "104 % of control and 124 % of control"}, {"measurement": "T/C", "setting": "dose: 0.25 mg/kg/injection, schedule: Q03HX008 (ip), vehicle: saline", "value": "117 % of control"}, {"measurement": "T/C", "setting": "dose: 0.25 mg/kg/injection, schedule: Q03HX016 (ip), vehicle: saline", "value": "121 % of control"}, {"measurement": "T/C", "setting": "dose: 0.39 mg/kg/injection, schedule: Q01DX009 (ip), vehicle: water", "value": "104 % of control"}, {"measurement": "T/C", "setting": "dose: 0.4 mg/kg/injection, schedule: Q01DX009 (ip), vehicle: saline", "value": "107 % of control"}, {"measurement": "T/C", "setting": "dose: 0.5 mg/kg/injection, schedule: Q01DX009 (ip), vehicle: saline", "value": "150 % of control"}, {"measurement": "T/C", "setting": "dose: 0.5 mg/kg/injection, schedule: Q03HX016 (ip), vehicle: saline", "value": "158 % of control"}, {"measurement": "T/C", "setting": "dose: 0.78 mg/kg/injection, schedule: Q01DX009 (ip), vehicle: water", "value": "120 % of control"}, {"measurement": "T/C", "setting": "dose: 0.8 mg/kg/injection, schedule: Q01DX009 (ip), vehicle: saline", "value": "190 % of control"}, {"measurement": "T/C", "setting": "dose: 1.0 mg/kg/injection, schedule: Q01DX001 (ip), vehicle: other", "value": "103 % of control"}, {"measurement": "T/C", "setting": "dose: 1.0 mg/kg/injection, schedule: Q01DX001 (ip), vehicle: saline", "value": "173 % of control"}, {"measurement": "T/C", "setting": "dose: 1.0 mg/kg/injection, schedule: Q01DX009 (ip), vehicle: saline", "value": "161 % of control and 186 % of control"}, {"measurement": "T/C", "setting": "dose: 1.0 mg/kg/injection, schedule: Q01DX009 (ip), vehicle: water", "value": "108 % of control"}, {"measurement": "T/C", "setting": "dose: 1.0 mg/kg/injection, schedule: Q01DX009 (sc), vehicle: saline", "value": "161 % of control"}, {"measurement": "T/C", "setting": "dose: 1.0 mg/kg/injection, schedule: Q03HX008 (ip), vehicle: saline", "value": "165 % of control"}, {"measurement": "T/C", "setting": "dose: 1.0 mg/kg/injection, schedule: Q03HX016 (ip), vehicle: saline", "value": "280 % of control"}, {"measurement": "T/C", "setting": "dose: 1.1 mg/kg/injection, schedule: Q01DX009 (ip), vehicle: saline", "value": "246 % of control"}, {"measurement": "T/C", "setting": "dose: 1.25 mg/kg/injection, schedule: Q01DX001 (ip), vehicle: saline", "value": "116 % of control and 122 % of control"}, {"measurement": "T/C", "setting": "dose: 1.3 mg/kg/injection, schedule: Q01DX009 (ip), vehicle: saline", "value": "159 % of control"}, {"measurement": "T/C", "setting": "dose: 1.5 mg/kg/injection, schedule: Q01DX009 (ip), vehicle: saline", "value": "171 % of control and 189 % of control"}, {"measurement": "T/C", "setting": "dose: 1.56 mg/kg/injection, schedule: Q01DX009 (ip), vehicle: water", "value": "160 % of control"}, {"measurement": "T/C", "setting": "dose: 1.8 mg/kg/injection, schedule: Q01DX009 (ip), vehicle: saline", "value": "255 % of control"}, {"measurement": "T/C", "setting": "dose: 2.0 mg/kg/injection, schedule: Q01DX001 (ip), vehicle: none", "value": "120 % of control"}, {"measurement": "T/C", "setting": "dose: 2.0 mg/kg/injection, schedule: Q01DX001 (ip), vehicle: other", "value": "124 % of control"}, {"measurement": "T/C", "setting": "dose: 2.0 mg/kg/injection, schedule: Q01DX001 (sc), vehicle: saline", "value": "114 % of control"}, {"measurement": "T/C", "setting": "dose: 2.0 mg/kg/injection, schedule: Q01DX009 (ip), vehicle: saline", "value": "206 % of control and 290 % of control and 306 % of control"}, {"measurement": "T/C", "setting": "dose: 2.0 mg/kg/injection, schedule: Q01DX009 (ip), vehicle: water", "value": "119 % of control"}, {"measurement": "T/C", "setting": "dose: 2.0 mg/kg/injection, schedule: Q01DX009 (oral), vehicle: saline", "value": "173 % of control"}, {"measurement": "T/C", "setting": "dose: 2.0 mg/kg/injection, schedule: Q01DX009 (sc), vehicle: saline", "value": "201 % of control"}, {"measurement": "T/C", "setting": "dose: 2.0 mg/kg/injection, schedule: Q03HX008 (ip), vehicle: saline", "value": "430 % of control"}, {"measurement": "T/C", "setting": "dose: 2.0 mg/kg/injection, schedule: Q03HX016 (ip), vehicle: saline", "value": "207 % of control"}, {"measurement": "T/C", "setting": "dose: 2.0 mg/kg/injection, schedule: Q04DX003 (ip), vehicle: saline", "value": "172 % of control"}, {"measurement": "T/C", "setting": "dose: 2.0 mg/kg/injection, schedule: Q08DX002 (ip), vehicle: saline", "value": "155 % of control"}, {"measurement": "T/C", "setting": "dose: 2.2 mg/kg/injection, schedule: Q01DX009 (ip), vehicle: saline", "value": "210 % of control and 297 % of control"}, {"measurement": "T/C", "setting": "dose: 2.6 mg/kg/injection, schedule: Q01DX009 (ip), vehicle: saline", "value": "206 % of control and 470 % of control"}, {"measurement": "T/C", "setting": "dose: 3.0 mg/kg/injection, schedule: Q01DX009 (ip), vehicle: saline", "value": "229 % of control"}, {"measurement": "T/C", "setting": "dose: 3.13 mg/kg/injection, schedule: Q01DX009 (ip), vehicle: water", "value": "213 % of control"}, {"measurement": "T/C", "setting": "dose: 4.0 mg/kg/injection, schedule: Q01DX001 (oral), vehicle: saline", "value": "176 % of control"}, {"measurement": "T/C", "setting": "dose: 4.0 mg/kg/injection, schedule: Q01DX009 (oral), vehicle: saline", "value": "86 % of control"}, {"measurement": "T/C", "setting": "dose: 4.0 mg/kg/injection, schedule: Q04DX003 (ip), vehicle: saline", "value": "208 % of control"}, {"measurement": "T/C", "setting": "dose: 4.0 mg/kg/injection, schedule: Q08DX002 (ip), vehicle: saline", "value": "213 % of control"}, {"measurement": "T/C", "setting": "dose: 5.0 mg/kg/injection, schedule: Q01DX001 (ip), vehicle: saline", "value": "165 % of control and 170 % of control"}, {"measurement": "T/C", "setting": "dose: 5.0 mg/kg/injection, schedule: Q01DX001 (ip), vehicle: water", "value": "222 % of control"}, {"measurement": "T/C", "setting": "dose: 6.25 mg/kg/injection, schedule: Q01DX009 (ip), vehicle: water", "value": "97 % of control"}, {"measurement": "T/C", "setting": "dose: 6.5 mg/kg/injection, schedule: Q01DX001 (ip), vehicle: saline", "value": "273 % of control and 327 % of control"}, {"measurement": "T/C", "setting": "dose: 6.7 mg/kg/injection, schedule: Q01DX001 (ip), vehicle: saline", "value": "257 % of control"}, {"measurement": "T/C", "setting": "dose: 8.0 mg/kg/injection, schedule: Q01DX001 (ip), vehicle: none", "value": "207 % of control"}, {"measurement": "T/C", "setting": "dose: 8.0 mg/kg/injection, schedule: Q01DX001 (ip), vehicle: other", "value": "316 % of control"}, {"measurement": "T/C", "setting": "dose: 8.0 mg/kg/injection, schedule: Q01DX001 (oral), vehicle: saline", "value": "240 % of control"}, {"measurement": "T/C", "setting": "dose: 8.0 mg/kg/injection, schedule: Q01DX001 (sc), vehicle: saline", "value": "150 % of control"}, {"measurement": "T/C", "setting": "dose: 8.0 mg/kg/injection, schedule: Q01DX009 (ip), vehicle: water", "value": "279 % of control"}, {"measurement": "T/C", "setting": "dose: 8.0 mg/kg/injection, schedule: Q04DX003 (ip), vehicle: saline", "value": "103 % of control"}, {"measurement": "T/C", "setting": "dose: 9.1 mg/kg/injection, schedule: Q01DX009 (ip), vehicle: saline", "value": "86 % of control"}, {"measurement": "T/C", "setting": "dose: 9.7 mg/kg/injection, schedule: Q01DX001 (ip), vehicle: saline", "value": "151 % of control and 254 % of control"}, {"measurement": "T/C", "setting": "dose: 10.0 mg/kg/injection, schedule: Q01DX001 (ip), vehicle: water", "value": "278 % of control"}, {"measurement": "T/C", "setting": "dose: 11.6 mg/kg/injection, schedule: Q01DX001 (ip), vehicle: saline", "value": "234 % of control and 314 % of control"}, {"measurement": "T/C", "setting": "dose: 16.0 mg/kg/injection, schedule: Q01DX001 (ip), vehicle: none", "value": "155 % of control"}, {"measurement": "T/C", "setting": "dose: 16.0 mg/kg/injection, schedule: Q01DX001 (ip), vehicle: other", "value": "279 % of control"}, {"measurement": "T/C", "setting": "dose: 16.0 mg/kg/injection, schedule: Q01DX001 (oral), vehicle: saline", "value": "223 % of control"}, {"measurement": "T/C", "setting": "dose: 16.0 mg/kg/injection, schedule: Q01DX009 (ip), vehicle: water", "value": "383 % of control"}, {"measurement": "T/C", "setting": "dose: 16.0 mg/kg/injection, schedule: Q08DX002 (ip), vehicle: saline", "value": "90 % of control"}, {"measurement": "T/C", "setting": "dose: 32.0 mg/kg/injection, schedule: Q01DX001 (ip), vehicle: none", "value": "64 % of control"}, {"measurement": "T/C", "setting": "dose: 200.0 mg/kg/injection, schedule: Q01DX001 (ip), vehicle: water", "value": "115 % of control"}, {"measurement": "T/C", "setting": "dose: 400.0 mg/kg/injection, schedule: Q01DX001 (ip), vehicle: water", "value": "199 % of control"}, {"measurement": "T/C", "setting": "dose: 800.0 mg/kg/injection, schedule: Q01DX001 (ip), vehicle: water", "value": "158 % of control"}, {"measurement": "T/C", "setting": "dose: 125.0 micrograms/kg/injection, schedule: Q03HX024 (ip), vehicle: saline", "value": "121 % of control"}, {"measurement": "T/C", "setting": "dose: 500.0 micrograms/kg/injection, schedule: Q03HX024 (ip), vehicle: saline", "value": "165 % of control"}, {"measurement": "T/C", "setting": "dose: 1000.0 micrograms/kg/injection, schedule: Q03HX024 (ip), vehicle: saline", "value": "211 % of control"}]}
{"smiles": "CC1OC1COC1COC2C(OCC3OC3C)COC12", "note": "(stereo not drawn)", "values": [{"measurement": "T/C", "setting": "dose: 100.0 mg/kg/injection, schedule: Q01DX001 (ip), vehicle: saline", "value": "106 % of control"}, {"measurement": "T/C", "setting": "dose: 200.0 mg/kg/injection, schedule: Q01DX001 (ip), vehicle: saline", "value": "106 % of control"}, {"measurement": "T/C", "setting": "dose: 400.0 mg/kg/injection, schedule: Q01DX001 (ip), vehicle: saline", "value": "101 % of control"}]}
